From US20250213654A1, “PEPTIDES AND METHODS FOR USE IN TREATING PAIN” (TAFALGIE THERAPEUTICS, priority 2022, published 2025)

Key:
[1] = system: Spared Nerve Injury (SNI) model of neuropathic pain; experiment: Spared Nerve Injury (SNI) model of neuropathic pain, Von Frey up-down mechanical threshold; type: in vivo, mice; conditions: SNI day 14, per os, 30 μg/mL solution in HPMC vehicle; peptides significant as soon as 1 hour (p value<0.01)
[2] = system: spinal lamina II interneurons; conditions: spinal lamina II interneurons (WO2014180853); cited from earlier work
[3] = system: injury-induced mechanical hypersensitivity; conditions: cited from earlier work

TAFA4 FL: human TAFA-4 full length mature protein (SEQ ID NO: 5) of 105 amino acid residues
antalgic effect (reversal of mechanical threshold) [1]: did not show significant antalgic effect | effect on nerve injury-induced neuronal sensitization [2]: can reverse nerve injury-induced neuronal sensitization of the spinal lamina II interneurons | effect on prolonged nerve injury-induced mechanical hypersensitivity of TAFA-4 gene deleted mice ([3]; intrathecal injection (Delfini et al., 2013)): reversed | effect on mechanical hypersensitivity ([3]; male and female mice, intrathecal and subcutaneous administration (WO2014180853)): reverses inflammatory, postoperative and nerve injury-induced mechanical hypersensitivity
